The nature of one data set: in vitro. The following applies: human.
The target of data set [1] is T1, HCV polymerase (NS5B570n-Con1) (Hepatitis C virus genotype 1b, UniProt Q9WMX2).
T1 construct: a 21 amino acid C-terminal deletion of full-length HCV polymerase; made in house; host or cells: E. coli BL21(DE3) pLysS, plasmid pET17b
In words: HCV NS5B RNA polymerase activity. The data set is classed as biochemical, HCV Con1 strain. The method, then: The enzymatic activity of HCV polymerase (NS5B570n-Con1) was measured as the incorporation of radiolabeled nucleotide monophosphates into acid insoluble RNA products. Unincorporated radiolabeled substrate was removed by filtration and scintillant was added to the washed and dried filter plate containing radiolabeled RNA product. The amount of RNA product generated by NS5B570n-Con1 at the end of the reaction was directly proportional to the amount of light emitted by the scintillant.
The HCV polymerase used in the enzymatic activity assay is a 21 amino acid C-terminal deletion of full-length HCV polymerase derived from HCV Con1 strain, genotype 1b (GenBank accession number AJ242654) (NS5B570n-Con1). The NS5B570n-Con1 was sub-cloned downstream to the T7 promoter of the plasmid expression construct pET17b and transformed into E. coli strain BL21(DE3) pLysS for protein expression. A single colony was used to start an innoculum for a 10 L culture in LB media supplemented with 100 μg/mL ampicillin at 37° C. Protein expression was induced by the addition of 0.25 mM isopropyl-β-D-thiogalactopyranoside (IPTG) when the optical density of the culture at […] was 0.8. Induction of protein expression was carried out at 30° C. for 16 h after which the cells were harvested by centrifugation. NS5B570n-Con1 was purified to homogeneity using a three-column purification protocol including subsequent column chromatography on Ni-NTA, SP-Sepharose HP and Superdex 75 resins.
[…] TRK-412; specific activity: 30 to 60 Ci/mmol;), 1 μM each ATP, CTP, and GTP, 40 mM Tris-HCl pH 8.0, 40 mM NaCl, 4 mM DTT (dithiothreitol), 4 mM MgCl2, 5 μl of compound serial diluted in DMSO, and nuclease-free water to a final reaction volume of 50 μl. Enzymatic reactions in the presence of poly A RNA template (see section 0004) contained 20 nM Poly A:oligo(rU)16 premixed (see section 0004), 20 nM NS5B570n-Con1 enzyme, 1 μCi of tritiated UTP (Perkin Elmer catalog no. TRK-412; specific activity: 30 to 60 Ci/mmol), 40 mM Tris-HCl pH 8.0, 40 mM NaCl, 4 mM DTT (dithiothreitol), 4 mM MgCl2, 5 μl of compound serial diluted in DMSO, and nuclease-free water to a final reaction volume of 50 μl. Reaction mixtures were assembled in 96-well filter plates (cat #MADVN0B, Millipore Co.) and incubated for 2 h at 30° C. Reactions were stopped by addition of 10% final (v/v) trichloroacetic acid and incubated for 40 min at 4° C. Reactions were filtered, washed with 8 reaction volumes of 10% (v/v) trichloroacetic acetic acid, 4 reaction volumes of 70% (v/v) ethanol, air dried, and 25 μl of scintillant (Microscint 20, Perkin-Elmer) was added to each reaction well.
Two RNA templates were used to assay compounds described herein. The cIRES RNA template was 377 nucleotide long and consisted of a partial complementary sequence (36 nucleotides) of the core protein, followed by 341 nucleotide of the complementary sequence of the internal ribosome entry site. The poly A RNA template (GE Amersham catalog number 27-4110) was a homopolymeric RNA pre-annealed to a oligo(rU)16 primer at a molar ratio of 3-to-1 (primer-template).
The amount of light emitted from the scintillant was converted to counts per minute (CPM) on a Topcount® plate reader (Perkin-Elmer, Energy Range: Low, Efficiency Mode: Normal, Count Time: 1 min, Background Subtract: none, Cross talk reduction: Off).
Data was analyzed in Excel® (Microsoft) and ActivityBase® (Idbs®). The reaction in the absence of enzyme was used to determine the background signal, which was subtracted from the enzymatic reactions. […] All data was expressed as a percentage of the positive control. The compound concentration at which the enzyme-catalyzed rate of RNA synthesis was reduced by 50%

In data set [2] the test system is HCV replicon cells (2209-23), genotype 1b replicon. Briefly: HCV replicon assay (Renilla luciferase reporter). The data set is classed as cell-based, HCV genotype 1b. The following applies: Hepatitis C virus, 72 h; 2209-23 cells, three days incubation. (A replicon is a self-replicating genome or part of one, used to study replication in cells.)
Setting [3] is: NS5B pol inhibition IC50, cell values marked ^2, as in Example 32 except RNA template concentration 3 nM (footnote 3).
The mark [4] stands for this setting: NS5B pol inhibition IC50, as in Example 32 (20 nM RNA template).

`COC(=O)c1cc(NS(C)(=O)=O)ccc1/C=C/c1cc(-c2cnc(OCc3ccccc3)[nH]c2=O)cc(C(C)(C)C)c1OC` [Compound I-24] displayed a CC50 in the data set “in vitro” of 4700 nM. The IC50 was 11 nM in data set [1] (setting [3]) and 40 nM in data set [2].
For `COc1c(/C=C/c2ccc(NS(C)(=O)=O)cc2C(=O)O)cc(-c2ccn[nH]c2=O)cc1C(C)(C)C` [Compound I-9, 2-{(E)-2-[3-tert-Butyl-2-methoxy-5-(3-oxo-2,3-dihydro-pyridazin-4-yl)-phenyl]-vinyl}-5-methanesulfonylamino-benzoic acid], the IC50 came to 0.2 nM in data set [1] (setting [4]) and 71 nM in data set [2].
With `COc1c(CCc2ccc(NS(C)(=O)=O)cc2)cc(-c2ncc[nH]c2=O)cc1C(C)(C)C` [Compound I-1, N-(4-{2-[3-tert-Butyl-2-methoxy-5-(3-oxo-3,4-dihydro-pyrazin-2-yl)-phenyl]-ethyl}-phenyl)-methanesulfonamide], the melting point was in the range of 238 to 240 °C. In “in vitro”, this compound registered a CC50 of 24200 nM. Half-maximal inhibition in data set [1] (setting [4]) (IC50) required 15 nM. In data set [2], this compound registered an IC50 of 112 nM.
As for `CC1(C)COc2c(-c3ccn[nH]c3=O)cc(/C=C/c3ccc(NS(C)(=O)=O)cc3)cc21` [Compound I-21, N-(4-{(E)-2-[3,3-Dimethyl-7-(3-oxo-2,3-dihydro-pyridazin-4-yl)-2,3-dihydro-benzofuran-5-yl]-vinyl}-phenyl)-methanesulfonamide], the melting point was in the range of 255 to 257 °C. In data set [1] (setting [3]), this compound registered an IC50 of 2 nM. The IC50 in data set [2] is 113 nM.
The compound `COc1ncc(-c2cc(/C=C/c3ccc(NS(C)(=O)=O)cc3)c(OC)c(C(C)(C)C)c2)c(=O)[nH]1` [Compound I-34, N-(4-{(E)-2-[3-tert-Butyl-2-methoxy-5-(2-methoxy-6-oxo-1,6-dihydro-pyrimidin-5-yl)-phenyl]-vinyl}-phenyl) methanesulfonamide] showed a melting point of 296 to 299 °C. For the same compound, 0.6 nM corresponded to half-maximal inhibition in data set [1] (setting [4]) (IC50).
As for `COc1c(/C=C/c2ccc(NS(C)(=O)=O)cc2)cc(-c2cnc[nH]c2=O)cc1C(C)(C)C` [Compound I-22, N-(4-{(E)-2-[3-tert-Butyl-2-methoxy-5-(6-oxo-1,6-dihydro-pyrimidin-5-yl)-phenyl]-vinyl}-phenyl)-methanesulfonamide], the CC50 in “in vitro” was 23200 nM. In addition, the IC50 in data set [1] (setting [3]) was found to be 2 nM.
With `COc1c(/C=C/c2ccc(NS(C)(=O)=O)cc2)cc(-c2c[nH]c(=O)[nH]c2=O)c2c1C(C)(C)CO2` [Compound I-28, N-(4-{(E)-2-[7-(2,4-dioxo-1,2,3,4-tetrahydro-pyrimidin-5-yl)-4-methoxy-3,3-dimethyl-2,3-dihydro-benzofuran-5-yl]-vinyl}-phenyl)-methanesulfonamide], the melting point is above 300 °C. This compound came in with an IC50 in data set [1] (setting [4]) of 0.6 nM.
Compound `COc1c(CCc2ccc(NC(C)=O)cc2)cc(-c2ncc[nH]c2=O)cc1C(C)(C)C` [Compound I-2, N-(4-{2-[3-tert-Butyl-2-methoxy-5-(3-oxo-3,4-dihydro-pyrazin-2-yl)-phenyl]-ethyl}-phenyl)-acetamide] displayed a melting point of 181 to 185 °C. In data set [1] (setting [4]), this compound had an IC50 of 710 nM.
The compound `COCc1cc(NS(C)(=O)=O)ccc1/C=C/c1cc(-c2c[nH]c(=O)[nH]c2=O)cc(C(C)(C)C)c1OC` [Compound I-40, N-(4-{(E)-2-[3-tert-Butyl-5-(2,4-dioxo-1,2,3,4-tetrahydro-pyrimidin-5-yl)-2-methoxy-phenyl]-vinyl}-3-methoxymethyl-phenyl)-methanesulfonamide] returned a melting point of 172 to 175 °C. In data set [1] (setting [4]), this compound returned an IC50 of 2.8 nM.
`COc1c(/C=C/c2ccc(NS(C)(=O)=O)cc2)cc(-c2cnc(N(C)C)[nH]c2=O)cc1C(C)(C)C` [Compound I-33, N-(4-{(E)-2-[3-tert-Butyl-5-(2-dimethylamino-6-oxo-1,6-dihydro-pyrimidin-5-yl)-2-methoxy-phenyl]-vinyl}-phenyl)-methanesulfonamide] yielded a melting point above 300 °C. In data set [1] (setting [4]), this compound had an IC50 of 2.6 nM.
Compound `COc1c(/C=C/c2ccc(NS(C)(=O)=O)cc2)cc(-c2ccn[nH]c2=O)cc1C1CC1` [Compound I-26, N-(4-{(E)-2-[3-Cyclopropyl-2-methoxy-5-(3-oxo-2,3-dihydro-pyridazin-4-yl)-phenyl]-vinyl}-phenyl)-methanesulfonamide] had a melting point of 269 to 271 °C. In data set [1] (setting [4]), inhibition was half-maximal at 2.1 nM (IC50).
For the compound `COc1c(/C=C/c2ccc(NS(C)(=O)=O)cc2)cc(-c2ccn[nH]c2=O)cc1C(C)(C)C` [Compound I-13, N-(4-{(E)-2-[3-tert-Butyl-2-methoxy-5-(3-oxo-2,3-dihydro-pyridazin-4-yl)-phenyl]-vinyl}-phenyl)-methanesulfonamide], the IC50 in data set [1] (setting [4]) was found to be 4 nM; in data set [2] it was 1 nM.
In turn, `COc1c(/C=C/c2ccc(NS(C)(=O)=O)cc2)cc(-c2c[nH]c(=O)[nH]c2=O)cc1C(F)(F)F` [Compound I-35, N-(4-{(E)-2-[5-(2,4-Dioxo-1,2,3,4-tetrahydro-pyrimidin-5-yl)-2-methoxy-3-trifluoromethyl-phenyl]-vinyl}-phenyl)-methanesulfonamide] displayed a melting point of 255 to 258 °C. Half-maximal inhibition in data set [1] (setting [4]) (IC50) was put at 0.5 nM.
For `Cc1cc(-c2ccn[nH]c2=O)cc(C(C)(C)C)c1` [Compound I-12] the same measures were 175 to 176 °C and 390 nM.
The corresponding values for `CC(C)(C)c1cc(/C=C/c2ccc(NS(C)(=O)=O)cc2)c(O)c(-c2ncc[nH]c2=O)c1` [Compound I-6, N-(4-{(E)-2-[5-tert-Butyl-2-hydroxy-3-(3-oxo-3,4-dihydro-pyrazin-2-yl)-phenyl]-vinyl}-phenyl)-methanesulfonamide] are 280 to 282 °C and 454 nM.
On to `COc1c(NC(=O)c2ccc(NS(C)(=O)=O)cc2)cc(-c2ncc[nH]c2=O)cc1C(C)(C)C` [Compound I-4, N-[3-tert-Butyl-2-methoxy-5-(3-oxo-3,4-dihydro-pyrazin-2-yl)-phenyl]-4-methanesulfonylamino-benzamide], for which the IC50 in data set [1] (setting [4]) is 6 nM; in data set [2], 347 nM.
In turn, `COc1c(NC(=O)c2ccc(N)cc2)cc(-c2ccn[nH]c2=O)cc1C(C)(C)C` [Compound I-19, 4-Amino-N-[3-tert-butyl-2-methoxy-5-(3-oxo-2,3-dihydro-pyridazin-4-yl)-phenyl]-benzamide] yielded a melting point of 174 to 176 °C. The same compound showed an IC50 in data set [1] (setting [4]) of 15 nM.
`CC(C)(C)c1cc(/C=C/c2ccc(NS(C)(=O)=O)cc2)cc(-c2ncc[nH]c2=O)c1` [Compound I-10]: the melting point was in the range of 283 to 285 °C. This compound also displayed an IC50 in data set [1] (setting [4]) of 7 nM.
`CC1(C)COc2c(-c3ncc[nH]c3=O)cc(/C=C/c3ccc(NS(C)(=O)=O)cc3)cc21` [Compound I-23, N-(4-{(E)-2-[3,3-Dimethyl-7-(3-oxo-3,4-dihydro-pyrazin-2-yl)-2,3-dihydro-benzofuran-5-yl]-vinyl}-phenyl)-methanesulfonamide] came in with a melting point of 302 to 304 °C. The same compound showed an IC50 in data set [1] (setting [3]) of 19 nM.

One may read the IC50 as the concentration at which inhibition is half-maximal. High values mean weaker potency, low ones greater potency. What is called melting point is the temperature, or range, at which the solid turns liquid.

Values taken from patent US8178547B2, “Heterocyclic antiviral compounds” (Roche Palo Alto LLC, priority 2008, dated 2012).
